The target of the experiment is T1, Rs89B1 (Raphanus sativus, UniProt A0A6J0K544).
T1 construct: gene LOC108814497; full-length CDS, C-terminal 6xHis tag (kept), expressed in Schizosaccharomyces pombe TN4, HisTrap purified; start MTVNEENT (from primer)
Put plainly: HPLC glucosyltransferase assay, initial rates, curve fitting. Type of experiment: biochemical. Conditions: co-substrate UDP-glucose (5.0 mM in basic mix), sodium phosphate pH 7.0, 30°C. The text has this: HPLC glucosyltransferase assay, initial rates, curve fitting on Rs89B1

SMILES strings stand for the structures. Read-outs that look alike come from different tables or passages of the source.

T1 sequence (A0A6J0K544 entry or part of it): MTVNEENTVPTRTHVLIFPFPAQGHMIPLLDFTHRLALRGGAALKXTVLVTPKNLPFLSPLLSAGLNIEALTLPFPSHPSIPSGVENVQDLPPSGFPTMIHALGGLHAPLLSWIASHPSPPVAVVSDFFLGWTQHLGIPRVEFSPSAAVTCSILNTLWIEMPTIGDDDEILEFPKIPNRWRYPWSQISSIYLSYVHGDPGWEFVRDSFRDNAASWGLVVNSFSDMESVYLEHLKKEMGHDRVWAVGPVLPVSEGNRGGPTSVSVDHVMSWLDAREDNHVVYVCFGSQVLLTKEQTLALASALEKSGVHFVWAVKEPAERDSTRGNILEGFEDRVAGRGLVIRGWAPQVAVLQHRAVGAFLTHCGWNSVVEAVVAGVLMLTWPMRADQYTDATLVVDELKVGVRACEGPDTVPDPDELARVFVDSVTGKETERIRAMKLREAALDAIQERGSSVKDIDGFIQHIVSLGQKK

For `O=C(O)c1cc(O)ccc1O` [2,5-DHBA], the Km turned out to be 773.8 ± 1.6 µM. Besides, where the note is “read-out: Rs89B1_ins / Km”, the Km was 663.2 ± 2.3 µM.

As for `O=C(O)c1ccc(O)cc1` [4-HBA], the Km came to 233 ± 12.2 µM. The Km (read-out: Rs89B1_ins / Km) stood at 251 ± 15.4 µM.

As for `O=C(O)c1c(O)cc(O)cc1O` [2,4,6-THBA], the Km is 198 ± 7.2 µM. Besides, the Km (read-out: Rs89B1_ins / Km) came out at 688 ± 14.6 µM.

Consider `O=C(O)c1ccc(O)c(O)c1O` [2,3,4-THBA, 2,3,4-trihydroxy benzoic acid], for which the Km was found to be 138 ± 2 µM. Also, the Km (read-out: Rs89B1_ins / Km) is 128 ± 4.5 µM.

Turning to `O=C(O)c1ccc(O)cc1O` [2,4-DHBA], the Km came out at 182 ± 4.2 µM. The Km (read-out: Rs89B1_ins / Km) is 212 ± 5.8 µM.

These data come from article PMC10901349, “Enzymatic properties of UDP-glycosyltransferase 89B1 from radish and modulation of enzyme catalytic activity via loop region mutation” (PLOS ONE, 2024).
